The values below come from PubChem BioAssay (NCI).

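Cultured in 96-well plates, cells were exposed to test compound for 48 hours across five concentrations. GI50 is the concentration that inhibits growth by half. The concentration for full growth arrest is given as TGI.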

Assay in all cases: growth of human tumour cells (NCI), 48 h
For experiment [1], the system named is SK-OV-3 ovarian.
Experiment [2] has as its system NCI-H226 lung.
For experiment [3], the system named is COLO 205 colon.
The test system of experiment [4] is A498 renal.
The test system of experiment [5] is OVCAR-5 ovarian.
For experiment [6], the system named is SF-539 CNS.
In experiment [7] the test system is NCI-H23 lung.
For experiment [8], the system named is UO-31 renal.
For experiment [9], the system named is 786-0 renal.
Experiment [10] relates to RPMI-8226 leukemia.

With `C/C=C/C(C#N)O[Si](C)(C)C` (stereo unspecified), the TGI in [1], in experiment [2], in experiment [3], in experiment [4], in experiment [5] and in experiment [6] was above 100 µM in each case. Further, the TGI in experiment [7], in experiment [8] and in experiment [9] was above 100 µM in each case.

Take `Cc1nc(C(N)=O)c(N)n1CCN1CCN(C(=O)CCCCCCCCCCNC2N=CNc3nc[nH]c32)CC1` (stereo unspecified): the TGI in [1], in experiment [3], in [4], in [5], in experiment [6] and in experiment [7] was above 100 µM throughout. The TGI in [8] and in experiment [9] was above 100 µM in each case.

On to `c1cc[c]([Sn][c]2ccccc2)cc1`, for which the GI50 in [1] is 26.4 µM; in [2], 21.8 µM; in [10] it was 19.8 µM; in [3], 24.3 µM; in experiment [5], 15 µM; in [6], 23.3 µM. For the same molecule, the GI50 in experiment [7] was 15 µM; in [8], 19.4 µM; in experiment [9], 17.4 µM. In addition, the TGI in experiment [1] was 90.9 µM; in experiment [2] it was 54.8 µM; in experiment [10] it was 49.2 µM; in experiment [3], 59.4 µM; in experiment [5], above 57.5 µM; in [6], 45.5 µM. The TGI in [7] was found to be 23.3 µM; in experiment [8], 38.5 µM; in [9], 31.6 µM.

Turning to `CCOC(=O)NC(=O)c1cn(CCN2CCN(C(=O)NCCCCCCNC(=O)N3CCN(CCn4cc(C(=O)NC(=O)OCC)c(=O)[nH]c4=O)CC3)CC2)c(=O)[nH]c1=O`, the TGI in experiment [1], in [10], in experiment [3], in [4], in [5] and in experiment [6] was above 100 µM each time. The TGI in experiment [7], in experiment [8] and in [9] was above 100 µM throughout.

Regarding `O=C(/C=C/c1ccccc1)Oc1cccc2cccnc12`, the TGI in experiment [1] was above 100 µM; in [2] it was above 66.7 µM; in experiment [10] it was above 100 µM; in experiment [3] it was 21.1 µM; in experiment [5], 80.6 µM; in [6], 30.5 µM. Besides, the figures for the TGI in experiment [7], in experiment [8] and in experiment [9] were 20 µM, above 73 µM and above 100 µM, respectively.

Regarding `COc1cc(/C=C/C(=O)/C=C/c2cc(OC)c3c(c2)OCO3)cc2c1OCO2`, the GI50 in experiment [1] was 3.46 µM; in experiment [2] it was 34.8 µM; in [3] it was 4.86 µM; in experiment [4], above 100 µM; in [5] it was above 100 µM; in [6], 22.6 µM. For the same molecule, the values for the GI50 in [7], in experiment [8] and in [9] were 7.69 µM, 5.77 µM and 9.63 µM, respectively. Also, the TGI is 48.2 µM in experiment [1]; above 100 µM in experiment [2]; above 100 µM in [3]; above 100 µM in [4]; above 100 µM in [5]; above 100 µM in experiment [6]. The TGI in [7], in [8] and in experiment [9] was above 100 µM in each case.

In the case of `c1ccc(C2ONC3=NCCN32)cc1` (stereo unspecified), the GI50 in experiment [1] was 37 µM; in [2], 25.3 µM; in [3] it was 41.6 µM; in [4], 1.97 µM; in experiment [5], 67.9 µM; in experiment [6], 46.6 µM. The GI50 in [7] was 66.2 µM; in experiment [8], 27.3 µM; in experiment [9] it was 13.3 µM. In addition, the TGI is above 100 µM in experiment [1]; 78.6 µM in experiment [2]; above 100 µM in experiment [3]; 9.02 µM in experiment [4]; above 100 µM in experiment [5]; above 100 µM in experiment [6]. The TGI in [7] was above 100 µM; in experiment [8], above 100 µM; in experiment [9], 68 µM.

With `CCc1c(C#N)c(=O)[nH]c(=O)n1CCN1CCN(C(=O)NCCCCCCNC(=O)N2CCN(CCn3c(CC)c(C#N)c(=O)[nH]c3=O)CC2)CC1`, the TGI in experiment [1], in experiment [10], in experiment [3], in experiment [4], in [6] and in experiment [9] was above 100 µM in each case.

For `CCSCCCSCCSCC`, the TGI in [1], in experiment [3], in experiment [5], in [6], in [7] and in experiment [8] was above 100 µM throughout. The same molecule registered a TGI in experiment [9] above 100 µM.

Regarding `CNC(=S)Nc1ccc(OC)c2ccccc12`, the TGI in experiment [1], in experiment [10], in experiment [3], in experiment [5], in experiment [6] and in experiment [7] was above 10 µM throughout. Moreover, the TGI in [9] is above 10 µM.

In the case of `N=C1C(O)C2(I)c3ccccc3N3C(=N)C(O)C4c5ccccc5N1C4C32` (stereo unspecified), the TGI in experiment [1], in experiment [10], in experiment [3], in experiment [4], in [5] and in [7] was above 100 µM in each case. In addition, the TGI in [8] and in [9] was above 100 µM in each case.

With `CN1N=CSC12C(=O)N(c1ccccc1)C(=O)N2c1ccccc1` (stereo unspecified), the TGI in experiment [1], in experiment [10], in experiment [3], in [4], in experiment [5] and in [6] was above 100 µM each time. In addition, the TGI in [7], in [8] and in experiment [9] was above 100 µM each time.
